Assay results from patent EP0942906B1, “COMPOUNDS USEFUL FOR INHIBITION OF FARNESYL PROTEIN TRANSFERASE” (SCHERING CORPORATION, priority 1996, dated 1998).
Like-named read-outs stand apart in the source and are kept apart here.

What was measured:
Conditions in all cases: range stated for the listed group of compounds
COS Cell = COS Cell IC50 (Cell-Based Assay, procedure of WO 95/10516)
Procedure: (§1) FPT IC50 (inhibition of farnesyl protein transferase, in vitro enzyme assay) and COS Cell IC50 (Cell-Based Assay) were determined following the assay procedures described in WO 95/10516, published April 20, 1995. GGPT IC50 (inhibition of geranylgeranyl protein transferase, in vitro enzyme assay), Cell Mat Assay, and anti-tumor activity (in vivo anti-tumor studies) could be determined by the assay procedures described in WO 95/10516.

Human tumor cells = experiment: Soft Agar Assay (anchorage-independent growth, colony count after MTT staining); assay type: cell-based
Procedure: Anchorage-independent growth is a characteristic of tumorigenic cell lines. Human tumor cells are suspended in growth medium containing 0.3% agarose and an indicated concentration of a farnesyl transferase inhibitor. The solution is overlayed onto growth medium solidified with 0.6% agarose containing the same concentration of farnesyl transferase inhibitor as the top layer. After the top layer is solidified, plates are incubated for 10-16 days at 37°C under 5% CO2 to allow colony outgrowth. After incubation, the colonies are stained by overlaying the agar with a solution of MTT (3-[4,5-dimethylthiazol-2-yl]-2.5-diphenyltetrazolium bromide, Thiazolyl blue) (1 mg/mL in PBS). Colonies can be counted and the IC50's can be determined.

[1] = molecular target: farnesyl protein transferase (Homo sapiens, UniProt P49354+P49356); experiment: FPT IC50, inhibition of farnesyl protein transferase, in vitro enzyme assay (procedure of WO 95/10516); assay type: biochemical
Procedure: as §1

[2] = H-ras, read-out: FPT IC50 (H-ras)
[3] = k-ras, read-out: FPT IC50 (k-ras)
[4] = ras form not stated, read-out: FPT IC50

Sequence of farnesyl protein transferase (P49356 whole entry, one chain of several): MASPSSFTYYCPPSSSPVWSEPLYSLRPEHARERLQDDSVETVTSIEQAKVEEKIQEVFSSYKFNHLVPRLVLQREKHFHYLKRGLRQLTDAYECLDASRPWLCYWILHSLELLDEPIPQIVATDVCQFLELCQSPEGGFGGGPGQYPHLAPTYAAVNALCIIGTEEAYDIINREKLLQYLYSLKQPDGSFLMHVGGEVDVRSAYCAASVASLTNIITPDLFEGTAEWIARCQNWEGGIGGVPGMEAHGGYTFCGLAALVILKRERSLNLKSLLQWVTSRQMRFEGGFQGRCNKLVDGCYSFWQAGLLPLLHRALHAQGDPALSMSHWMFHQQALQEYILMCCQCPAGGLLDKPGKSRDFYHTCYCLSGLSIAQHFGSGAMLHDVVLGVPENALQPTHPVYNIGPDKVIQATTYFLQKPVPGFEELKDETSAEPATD

Row | SMILES | IC50 (COS Cell; read-out: Cos Cell IC50) | IC50 (Human tumor cells) | IC50 [1, 2] | IC50 [1, 3] | IC50 (COS Cell; read-out: Cos Cell) | IC50 [1, 4]
1 | CN(C)CC(=O)N1CCC(CC(=O)N2CCC(C3c4ncc(Br)cc4CCc4cc(Cl)cc(Br)c43)CC2)CC1 (single isomer, unassigned; (+)) [Compound 12.1] | 10 to 700 nM | ≥ 19.5 nM | 2 to 31.7 nM | 14.5 to 71.2 nM |  | 
2 | CN(C)CCC(=O)N1CCC(CC(=O)N2CCC(C3c4ncc(Br)cc4CCc4cc(Cl)cc(Br)c43)CC2)CC1 (single isomer, unassigned; (+)) [Compound 12.3] | 10 to 700 nM | ≥ 19.5 nM | 2 to 31.7 nM | 14.5 to 71.2 nM |  | 
3 | O=C(CC1CCN(C(=O)CN2CCS(=O)(=O)CC2)CC1)N1CCC(C2c3ncc(Br)cc3CCc3cc(Cl)cc(Br)c32)CC1 (single isomer, unassigned; (+)) [Compound 14.1] | 10 to 700 nM |  | 2 to 31.7 nM |  |  | 
4 | O=C(CCN1CCCCC1)N1CCC(CC(=O)N2CCC(C3c4ncc(Br)cc4CCc4cc(Cl)cc(Br)c43)CC2)CC1 (single isomer, unassigned; (+)) [Compound 14.2] | 10 to 700 nM |  | 2 to 31.7 nM |  |  | 
5 | CC(C)(C)OC(=O)NCC(=O)N1CCC(CC(=O)N2CCC([C@H]3c4ncc(Br)cc4CCc4cc(Cl)cc(Br)c43)CC2)CC1 [Compound 2.0] |  |  | 2 to 31.7 nM | 14.5 to 71.2 nM |  | 
6 | C[C@H](NC(=O)OC(C)(C)C)C(=O)N1CCC(CC(=O)N2CCC([C@H]3c4ncc(Br)cc4CCc4cc(Cl)cc(Br)c43)CC2)CC1 [Compound 3.0] |  |  | 2 to 31.7 nM | 14.5 to 71.2 nM |  | 
7 | C[C@@H](NC(=O)OC(C)(C)C)C(=O)N1CCC(CC(=O)N2CCC([C@H]3c4ncc(Br)cc4CCc4cc(Cl)cc(Br)c43)CC2)CC1 [Compound 4.0] |  |  | 2 to 31.7 nM | 14.5 to 71.2 nM |  | 
8 | CC(C)(C)OC(=O)N[C@@H](Cc1ccccc1)C(=O)N1CCC(CC(=O)N2CCC([C@H]3c4ncc(Br)cc4CCc4cc(Cl)cc(Br)c43)CC2)CC1 [Compound 5.0] |  |  | 2 to 31.7 nM |  |  | 
9 | O=C(CC1CCN(C(=O)CN2CCS(=O)(=O)CC2)CC1)N1CCC([C@H]2c3ncc(Br)cc3CCc3cc(Cl)cc(Br)c32)CC1 [Compound 6.0-B] |  | ≥ 19.5 nM |  | 14.5 to 71.2 nM | ≥ 9 nM | 0.7 to 18 nM
10 | CC(C)(C)OC(=O)N[C@@H](Cc1c[nH]cn1)C(=O)N1CCC(CC(=O)N2CCC([C@H]3c4ncc(Br)cc4CCc4cc(Cl)cc(Br)c43)CC2)CC1 [Compound 6.0] | 10 to 700 nM |  | 2 to 31.7 nM | 14.5 to 71.2 nM | ≥ 9 nM | 
11 | O=C(CCN1CCCCC1)N1CCC(CC(=O)N2CCC([C@H]3c4ncc(Br)cc4CCc4cc(Cl)cc(Br)c43)CC2)CC1 [Compound 7.0-B] |  |  |  | 14.5 to 71.2 nM | ≥ 9 nM | 0.7 to 18 nM
12 | CC(C)(C)OC(=O)N1CCC[C@H]1C(=O)N1CCC(CC(=O)N2CCC([C@H]3c4ncc(Br)cc4CCc4cc(Cl)cc(Br)c43)CC2)CC1 [Compound 7.0] | 10 to 700 nM |  | 2 to 31.7 nM | 14.5 to 71.2 nM |  | 
13 | CCOC(=O)CC(=O)N1CCC(CC(=O)N2CCC([C@H]3c4ncc(Br)cc4CCc4cc(Cl)cc(Br)c43)CC2)CC1 [Compound 8.0-B] |  |  |  |  |  | 0.7 to 18 nM
14 | N[C@@H](Cc1ccccc1)C(=O)N1CCC(CC(=O)N2CCC([C@H]3c4ncc(Br)cc4CCc4cc(Cl)cc(Br)c43)CC2)CC1 [Compound 8.0] | 10 to 700 nM |  | 2 to 31.7 nM | 14.5 to 71.2 nM |  | 
15 | CC(C)=NOCC(=O)N1CCC(CC(=O)N2CCC([C@H]3c4ncc(Br)cc4CCc4cc(Cl)cc(Br)c43)CC2)CC1 [Compound 9.0-B] |  | ≥ 19.5 nM |  | 14.5 to 71.2 nM | ≥ 9 nM | 0.7 to 18 nM
16 | N[C@@H](Cc1c[nH]cn1)C(=O)N1CCC(CC(=O)N2CCC([C@H]3c4ncc(Br)cc4CCc4cc(Cl)cc(Br)c43)CC2)CC1 [Compound 9.0] |  |  | 2 to 31.7 nM | 14.5 to 71.2 nM |  | 
17 | Cc1nccn1CC(=O)N1CCC(CC(=O)N2CCC([C@H]3c4ncc(Br)cc4CCc4cc(Cl)cc(Br)c43)CC2)CC1 [Compound 10.0-B] |  | ≥ 19.5 nM |  | 14.5 to 71.2 nM | ≥ 9 nM | 0.7 to 18 nM
18 | O=C(CC1CCN(C(=O)[C@@H]2CCCN2)CC1)N1CCC([C@H]2c3ncc(Br)cc3CCc3cc(Cl)cc(Br)c32)CC1 [Compound 10.0] | 10 to 700 nM | ≥ 19.5 nM | 2 to 31.7 nM | 14.5 to 71.2 nM |  | 

Row | SMILES | IC50 (COS Cell; read-out: Cos Cell IC50) | IC50 (Human tumor cells) | IC50 [1, 2] | IC50 [1, 3] | IC50 (COS Cell; read-out: Cos Cell) | IC50 [1, 4]
19 | CS(=O)(=O)NCC(=O)N1CCC(CC(=O)N2CCC([C@H]3c4ncc(Br)cc4CCc4cc(Cl)cc(Br)c43)CC2)CC1 [Compound 11.0] | 10 to 700 nM |  | 2 to 31.7 nM |  |  | 
20 | O=C(CC1CCN(C(=O)Cn2cnc3ccccc32)CC1)N1CCC([C@H]2c3ncc(Br)cc3CCc3cc(Cl)cc(Br)c32)CC1 [Compound 12.0-B] |  | ≥ 19.5 nM |  | 14.5 to 71.2 nM | ≥ 9 nM | 0.7 to 18 nM
21 | O=C(NCC(=O)N1CCC(CC(=O)N2CCC([C@H]3c4ncc(Br)cc4CCc4cc(Cl)cc(Br)c43)CC2)CC1)c1ccccc1 [Compound 12.0] | 10 to 700 nM |  | 2 to 31.7 nM |  |  | 
22 | CN(C)CCCC(=O)N1CCC(CC(=O)N2CCC([C@H]3c4ncc(Br)cc4CCc4cc(Cl)cc(Br)c43)CC2)CC1 [Compound 12.2] |  |  | 2 to 31.7 nM |  |  | 
23 | O=C(CC1CCN(C(=O)Cn2cnc3cccnc32)CC1)N1CCC([C@H]2c3ncc(Br)cc3CCc3cc(Cl)cc(Br)c32)CC1 [Compound 13.0-B] |  | ≥ 19.5 nM |  | 14.5 to 71.2 nM | ≥ 9 nM | 0.7 to 18 nM
24 | O=C(CC1CCN(C(=O)CN2CCOCC2)CC1)N1CCC([C@H]2c3ncc(Br)cc3CCc3cc(Cl)cc(Br)c32)CC1 [Compound 13.0] | 10 to 700 nM |  | 2 to 31.7 nM |  |  | 
25 | O=C(O)CC(=O)N1CCC(CC(=O)N2CCC([C@H]3c4ncc(Br)cc4CCc4cc(Cl)cc(Br)c43)CC2)CC1 [Compound 14.0-B] |  | ≥ 19.5 nM |  |  | ≥ 9 nM | 0.7 to 18 nM
26 | COC(=O)CCCC(=O)N1CCC(CC(=O)N2CCC(C3c4ncc(Br)cc4CCc4cc(Cl)cc(Br)c43)CC2)CC1 (centres unmarked) [Compound 15.1] | 10 to 700 nM |  | 2 to 31.7 nM |  |  | 
27 | COC(=O)CCC(=O)N1CCC(CC(=O)N2CCC(C3c4ncc(Br)cc4CCc4cc(Cl)cc(Br)c43)CC2)CC1 (centres unmarked) [Compound 15.2] | 10 to 700 nM | ≥ 19.5 nM | 2 to 31.7 nM |  |  | 
28 | CCOC(=O)CC(=O)N1CCC(CC(=O)N2CCC(C3c4ncc(Br)cc4CCc4cc(Cl)cc(Br)c43)CC2)CC1 (centres unmarked) [Compound 15.3] | 10 to 700 nM |  | 2 to 31.7 nM |  |  | 
29 | CCOC(=O)C[C@@H](CC(=O)N1CCC(CC(=O)N2CCC([C@H]3c4ncc(Br)cc4CCc4cc(Cl)cc(Br)c43)CC2)CC1)OC(C)=O [Compound 16.0-B] |  | ≥ 19.5 nM |  |  | ≥ 9 nM | 0.7 to 18 nM
30 | NCC(=O)N1CCC(CC(=O)N2CCC([C@H]3c4ncc(Br)cc4CCc4cc(Cl)cc(Br)c43)CC2)CC1 [Compound 16.0] |  | ≥ 19.5 nM |  |  | ≥ 9 nM | 
31 | O=C(CC1CCN(C(=O)Cn2cnc(-c3ccccc3)c2)CC1)N1CCC([C@H]2c3ncc(Br)cc3CCc3cc(Cl)cc(Br)c32)CC1 [Compound 20.0-B] |  |  |  |  |  | 0.7 to 18 nM
32 | COC(NC(=O)CC(=O)N1CCC(CC(=O)N2CCC([C@H]3c4ncc(Br)cc4CCc4cc(Cl)cc(Br)c43)CC2)CC1)C(C)C (some centres unmarked) [Compound 51.0-B] |  |  |  |  | ≥ 9 nM | 0.7 to 18 nM
33 | CCOC(CC(=O)N1CCC(CC(=O)N2CCC([C@H]3c4ncc(Br)cc4CCc4cc(Cl)cc(Br)c43)CC2)CC1)OCC [Compound 76.0-B] |  |  |  |  |  | 0.7 to 18 nM
34 | CC(C)(C)OC(=O)NCCC(=O)N1CCC(CC(=O)N2CCC([C@H]3c4ncc(Br)cc4CCc4cc(Cl)cc(Br)c43)CC2)CC1 [Compound 86.0-B] |  |  |  |  |  | 0.7 to 18 nM
35 | NCCCC(=O)N1CCC(CC(=O)N2CCC([C@H]3c4ncc(Br)cc4CCc4cc(Cl)cc(Br)c43)CC2)CC1 [Compound 90.0-B] |  |  |  |  |  | 0.7 to 18 nM
36 | O=C(CC1CCN(C(=O)CC2CCCCO2)CC1)N1CCC([C@H]2c3ncc(Br)cc3CCc3cc(Cl)cc(Br)c32)CC1 (some centres unmarked) [Compound 114.3-B] |  |  |  |  | ≥ 9 nM | 0.7 to 18 nM
